Data as given in ChEMBL document CHEMBL3739345, “Design and synthesis of potent and selective inhibitors of BRD7 and BRD9 bromodomains” (Medchemcomm, 2015).

What was measured:
Peregrin (Homo sapiens) = target: T1, Peregrin (Homo sapiens) (UniProt P55201); assay: Binding affinity to human BRPF1B assessed as change in melting temperature at 10 uM by differential scanning fluorimetry
T1 sequence (whole entry): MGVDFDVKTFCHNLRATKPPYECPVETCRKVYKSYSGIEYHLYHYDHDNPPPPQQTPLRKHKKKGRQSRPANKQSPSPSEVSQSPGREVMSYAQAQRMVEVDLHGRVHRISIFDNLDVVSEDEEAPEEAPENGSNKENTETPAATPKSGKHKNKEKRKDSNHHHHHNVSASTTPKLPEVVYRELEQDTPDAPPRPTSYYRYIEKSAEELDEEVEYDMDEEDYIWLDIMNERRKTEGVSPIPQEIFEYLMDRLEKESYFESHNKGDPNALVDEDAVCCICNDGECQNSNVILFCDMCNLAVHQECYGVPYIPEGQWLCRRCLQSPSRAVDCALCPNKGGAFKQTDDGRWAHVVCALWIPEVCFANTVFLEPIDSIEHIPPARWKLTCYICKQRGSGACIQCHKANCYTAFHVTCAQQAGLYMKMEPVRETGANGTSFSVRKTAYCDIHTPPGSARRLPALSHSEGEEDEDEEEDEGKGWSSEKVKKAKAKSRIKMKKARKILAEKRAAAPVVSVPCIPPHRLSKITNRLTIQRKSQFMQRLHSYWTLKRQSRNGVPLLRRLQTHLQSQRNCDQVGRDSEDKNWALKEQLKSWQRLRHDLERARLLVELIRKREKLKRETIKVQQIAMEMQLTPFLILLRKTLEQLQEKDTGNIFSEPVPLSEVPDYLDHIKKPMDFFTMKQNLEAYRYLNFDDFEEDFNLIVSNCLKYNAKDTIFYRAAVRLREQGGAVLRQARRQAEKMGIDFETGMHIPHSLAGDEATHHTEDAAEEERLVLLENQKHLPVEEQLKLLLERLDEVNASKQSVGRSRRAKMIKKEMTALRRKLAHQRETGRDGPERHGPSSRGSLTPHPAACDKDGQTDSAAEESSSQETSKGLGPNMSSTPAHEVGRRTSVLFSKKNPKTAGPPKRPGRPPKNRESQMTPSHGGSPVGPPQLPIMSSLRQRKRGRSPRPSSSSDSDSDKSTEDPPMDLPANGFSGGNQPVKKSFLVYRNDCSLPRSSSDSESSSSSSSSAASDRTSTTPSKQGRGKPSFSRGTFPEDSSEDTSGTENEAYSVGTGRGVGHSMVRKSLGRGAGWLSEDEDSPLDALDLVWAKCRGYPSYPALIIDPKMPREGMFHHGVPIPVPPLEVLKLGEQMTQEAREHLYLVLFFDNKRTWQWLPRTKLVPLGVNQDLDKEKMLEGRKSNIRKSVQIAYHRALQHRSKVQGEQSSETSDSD

[1] = target: T2, Bromodomain-containing protein 4 (Homo sapiens, UniProt O60885); assay: Binding affinity to human BRD4 assessed as change in melting temperature at 10 uM by differential scanning fluorimetry
Peregrin = target: T3, Peregrin (Homo sapiens, UniProt P55201); assay: Inhibition of human BRPF1B by alpha screen assay
T3 sequence (P55201 whole entry): T1 sequence (whole entry)

[2] = target: T2, Bromodomain-containing protein 4; assay: Inhibition of human BRD4 by alpha screen assay
[3] = target: T4, Bromodomain-containing protein 9 (Homo sapiens) (UniProt Q9H8M2); assay: Binding affinity to human BRD9 assessed as change in melting temperature at 10 uM by differential scanning fluorimetry
T4 sequence (whole entry): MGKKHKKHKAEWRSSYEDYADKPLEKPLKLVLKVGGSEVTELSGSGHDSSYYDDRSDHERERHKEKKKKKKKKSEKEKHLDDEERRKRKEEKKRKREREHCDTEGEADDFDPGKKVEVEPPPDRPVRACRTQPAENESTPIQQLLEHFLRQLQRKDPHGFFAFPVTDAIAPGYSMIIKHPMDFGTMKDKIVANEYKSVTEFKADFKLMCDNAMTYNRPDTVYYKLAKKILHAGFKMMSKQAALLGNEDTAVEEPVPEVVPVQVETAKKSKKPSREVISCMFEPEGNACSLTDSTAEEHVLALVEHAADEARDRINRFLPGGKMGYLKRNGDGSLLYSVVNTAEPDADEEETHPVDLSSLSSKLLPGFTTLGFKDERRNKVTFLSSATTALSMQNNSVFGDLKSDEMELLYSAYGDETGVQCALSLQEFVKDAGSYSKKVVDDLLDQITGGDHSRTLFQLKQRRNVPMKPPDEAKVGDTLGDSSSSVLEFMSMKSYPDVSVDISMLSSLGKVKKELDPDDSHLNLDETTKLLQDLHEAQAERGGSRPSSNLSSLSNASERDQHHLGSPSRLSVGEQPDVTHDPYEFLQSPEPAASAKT

[4] = target: Bromodomain adjacent to zinc finger domain protein 2B (Homo sapiens, UniProt Q9UIF8); assay: Inhibition of human BAZ2B by alpha screen assay
Chain of Bromodomain adjacent to zinc finger domain protein 2B (Q9UIF8 whole entry, the tested form may be a part): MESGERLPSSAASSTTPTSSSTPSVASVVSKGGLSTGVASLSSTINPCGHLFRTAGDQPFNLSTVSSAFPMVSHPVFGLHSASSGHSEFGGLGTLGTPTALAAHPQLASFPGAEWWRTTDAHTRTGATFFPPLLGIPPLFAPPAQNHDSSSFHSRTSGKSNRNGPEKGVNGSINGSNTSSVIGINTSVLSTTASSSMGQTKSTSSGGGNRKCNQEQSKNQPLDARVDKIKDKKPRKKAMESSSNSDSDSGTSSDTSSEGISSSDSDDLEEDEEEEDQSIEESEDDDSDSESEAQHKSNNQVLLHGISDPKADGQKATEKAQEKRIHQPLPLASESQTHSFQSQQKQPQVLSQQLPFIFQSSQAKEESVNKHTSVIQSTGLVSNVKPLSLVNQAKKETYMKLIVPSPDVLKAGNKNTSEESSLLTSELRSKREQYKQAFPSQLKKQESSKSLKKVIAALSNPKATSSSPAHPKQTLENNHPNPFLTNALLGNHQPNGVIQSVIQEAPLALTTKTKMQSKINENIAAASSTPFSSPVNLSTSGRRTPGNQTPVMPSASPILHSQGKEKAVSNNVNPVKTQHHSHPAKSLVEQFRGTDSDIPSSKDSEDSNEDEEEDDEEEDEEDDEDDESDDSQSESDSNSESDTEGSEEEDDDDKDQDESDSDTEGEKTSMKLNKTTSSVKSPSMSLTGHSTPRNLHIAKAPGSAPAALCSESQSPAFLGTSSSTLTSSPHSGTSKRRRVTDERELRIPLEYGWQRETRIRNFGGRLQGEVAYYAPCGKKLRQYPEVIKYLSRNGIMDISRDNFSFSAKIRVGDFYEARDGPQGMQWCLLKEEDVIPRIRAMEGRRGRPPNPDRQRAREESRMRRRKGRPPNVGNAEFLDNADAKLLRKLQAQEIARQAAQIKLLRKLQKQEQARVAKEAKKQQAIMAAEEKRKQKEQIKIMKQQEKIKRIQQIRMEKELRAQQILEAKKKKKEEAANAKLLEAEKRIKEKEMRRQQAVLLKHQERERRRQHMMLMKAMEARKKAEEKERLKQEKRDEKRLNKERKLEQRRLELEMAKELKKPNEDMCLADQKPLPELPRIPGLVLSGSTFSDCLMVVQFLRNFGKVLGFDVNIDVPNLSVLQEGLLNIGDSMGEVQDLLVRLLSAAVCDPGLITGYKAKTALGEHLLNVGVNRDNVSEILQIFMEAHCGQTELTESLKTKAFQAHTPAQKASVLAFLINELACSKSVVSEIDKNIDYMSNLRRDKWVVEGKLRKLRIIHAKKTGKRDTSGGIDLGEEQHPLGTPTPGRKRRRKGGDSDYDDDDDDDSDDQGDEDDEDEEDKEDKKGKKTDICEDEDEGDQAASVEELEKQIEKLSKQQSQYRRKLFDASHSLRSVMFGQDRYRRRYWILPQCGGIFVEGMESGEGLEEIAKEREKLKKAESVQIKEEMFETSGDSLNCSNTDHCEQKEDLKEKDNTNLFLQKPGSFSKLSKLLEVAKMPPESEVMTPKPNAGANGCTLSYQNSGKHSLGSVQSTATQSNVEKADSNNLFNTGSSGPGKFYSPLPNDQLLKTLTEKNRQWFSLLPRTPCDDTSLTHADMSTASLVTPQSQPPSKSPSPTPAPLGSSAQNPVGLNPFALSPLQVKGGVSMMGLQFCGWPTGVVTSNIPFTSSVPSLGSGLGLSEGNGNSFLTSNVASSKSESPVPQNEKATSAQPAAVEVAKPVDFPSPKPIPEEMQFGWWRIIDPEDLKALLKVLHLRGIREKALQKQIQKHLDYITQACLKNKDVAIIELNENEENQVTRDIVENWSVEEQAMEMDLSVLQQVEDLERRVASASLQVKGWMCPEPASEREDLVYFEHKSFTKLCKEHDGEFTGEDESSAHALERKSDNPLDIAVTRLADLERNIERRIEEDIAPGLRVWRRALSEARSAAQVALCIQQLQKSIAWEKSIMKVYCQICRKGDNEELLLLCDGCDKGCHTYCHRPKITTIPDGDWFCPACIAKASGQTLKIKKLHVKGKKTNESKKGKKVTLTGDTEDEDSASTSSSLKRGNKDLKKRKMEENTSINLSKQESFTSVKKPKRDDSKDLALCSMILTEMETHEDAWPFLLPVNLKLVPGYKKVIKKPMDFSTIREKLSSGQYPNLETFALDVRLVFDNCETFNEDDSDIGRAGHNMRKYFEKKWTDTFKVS

[5] = target: T5, Bromodomain-containing protein 9 (Homo sapiens, UniProt Q9H8M2); assay: Inhibition of human BRD9 by alpha screen assay
T5 sequence (Q9H8M2 whole entry): T4 sequence (whole entry)

Row | SMILES | ΔTm (Peregrin (Homo sapiens)) [°C] | ΔTm [1] [°C] | IC50 (Peregrin) [nM] | IC50 [2] [nM] | ΔTm [3] [°C] | IC50 [4] [nM] | IC50 [5] [nM]
1 | CC(=O)c1cc(-c2cccc3nccn23)c2cc(N3CCN(C)CC3)ccn12 | 3.5 | 4.1 | ≤ 1000 | ≤ 1000 | 7.5 |  | 
2 | CC(=O)c1cc(-c2ccccn2)c2cc(N3CCNCC3)ccn12 | 1.7 | 4 |  |  | 5.7 |  | 
3 | COc1cccc(-c2cc(C(C)=O)n3ccc(N4CCOCC4)cc23)n1 | 0.53 | 0.82 |  |  | 1.3 |  | 
4 | O=C(c1cc(-c2cccc3nccn23)c2cc(N3CCOCC3)ccn12)C(F)(F)F | 0.2 | -0.4 |  |  | 0.26 |  | 
5 | CCC(=O)c1cc(-c2cccc3nccn23)c2cc(N3CCN(C)CC3)ccn12 | 0.15 | 0.51 |  |  | 1.2 |  | 
6 | CCCCC(=O)c1cc(-c2cccc3nccn23)c2cc(N3CCN(C)CC3)ccn12 | 0.5 | -0.78 |  |  | 0.27 |  | 
7 | CCCOc1ccn2c(C(C)=O)cc(-c3cccc(Cl)n3)c2c1 | 0.18 | -0.6 |  |  | 0.085 |  | 
8 | CC(C)C(=O)c1cc(-c2cccc3nccn23)c2cc(N3CCN(C)CC3)ccn12 | 0.71 | 0.19 |  |  | 1 |  | 
9 | CCCOc1ccn2c(C(C)=O)cc(-c3cc(C(=O)OC)ccn3)c2c1 | 0.09 | -0.24 |  |  | -0.03 |  | 
10 | CN1CCN(c2ccn3c(C(=O)C(F)(F)F)cc(-c4cccc5nccn45)c3c2)CC1 | 0.26 | -0.7 |  |  | 0.3 |  | 
11 | CC(=O)c1cc(-c2cccc3nccn23)c2cc(N3CCNCC3)ccn12 | 2.3 | 2.6 |  |  | 5.1 |  | 
12 | CC(=O)c1cc(-c2nc3ccccc3s2)c2cc(N3CCOCC3)ccn12 | 0.04 | 0.55 |  |  | -0.3 |  | 
13 | CN1CCN(c2ccn3c(C(=O)C4CC4)cc(-c4cccc5nccn45)c3c2)CC1 | 0.085 | -0.65 |  |  | 0.76 |  | 
14 | CCCOc1ccn2c(C(C)=O)cc(-c3ccccn3)c2c1 | 0.32 | -0.35 |  |  | 1.1 | 2510 | 2510
15 | CCC(=O)c1cc(-c2cccc3nccn23)c2cc(N3CCOCC3)ccn12 | 0.2 | 0.98 |  |  | 3 |  | 

Continued, values first:

Row | ΔTm (Peregrin (Homo sapiens)) [°C] | ΔTm [1] [°C] | IC50 (Peregrin) [nM] | IC50 [2] [nM] | ΔTm [3] [°C] | IC50 [4] [nM] | IC50 [5] [nM] | SMILES
16 | 0.22 | -0.39 |  |  | -0.23 |  |  | CC(=O)c1cc(-c2ccc(Cl)cn2)c2cc(N3CCOCC3)ccn12
17 | 2.5 | -4 |  |  | -1.1 |  |  | CC(=O)c1cc(-c2ccc(C(F)(F)F)cn2)c2cc(N3CCOCC3)ccn12
18 | 0.48 | -0.42 |  |  | -0.28 |  |  | CC(=O)c1cc(-c2ncc(C)cc2F)c2cc(N3CCOCC3)ccn12
19 | 0.71 | 0.41 |  |  | 1.3 |  |  | CC(=O)c1cc(-c2ncccc2F)c2cc(N3CCOCC3)ccn12
20 | 0.01 | -0.24 |  |  | -0.06 |  |  | CC(=O)c1cc(-c2cc(C(=O)O)ccn2)c2cc(N3CCOCC3)ccn12
21 | 0.04 | 0.075 |  |  | 0.35 |  |  | COC(=O)c1ccnc(-c2cc(C(C)=O)n3ccc(N4CCOCC4)cc23)c1
22 | 0.34 | 0.28 |  |  | 0.81 |  |  | CC(=O)c1cc(-c2cccc(Cl)n2)c2cc(N3CCOCC3)ccn12
23 | 1.3 | 1.9 |  |  | 5.7 | 3160 | 501 | CC(=O)c1cc(-c2ccccn2)c2cc(N3CCOCC3)ccn12
24 | 0.29 | 0.43 |  |  | 0.035 |  |  | CC(=O)c1cc(-c2ncccn2)c2cc(N3CCOCC3)ccn12
25 | 0.65 | 1.2 |  |  | 4.2 | 15800 | 501 | CC(=O)c1cc(-c2cccc(C)n2)c2cc(N3CCOCC3)ccn12
